This is an account of results in US10947251B2, “Therapeutic compounds and methods of use thereof” (GENENTECH, INC., priority 2018, dated 2021).

Test [1] addresses T1, hNav1.7 (Homo sapiens (Human), UniProt Q15858). As to the kind of experiment: Tritiated compound binding to membranes from cells heterologously expressing hNav1.7 and the β1 subunit (LBA). The note with it: competitive binding vs [3H]compound, membranes with hNav1.7 and β1 subunit; read-out: Nav1.7 LBA EVO IC50. Here is the method:
Example 39A. Tritiated Compound Binding to Membranes Isolated from Cells that Heterologously Express hNav1.7 and the β1 Subunit
Preparation of membranes containing recombinantly expressed sodium channels: Frozen recombinant cell pellets were thawed on ice and diluted to 4 times the cell pellet weight with ice cold 50 mM Tris HCl, pH 7.4 buffer. The cell suspensions were homogenized on ice using a motorized glass dounce homogeniser. Homogenates were further diluted 8.4 times with ice cold 50 mM Tris HCl, pH 7.4 buffer and then centrifuged at 200×g at 4° C. for 15 min. The supernatants were collected and centrifuged at 10000×g at 4° C. for 50 min. The pellets were then re-suspended in 100 mM NaCl, 20 mM Tris HCl, pH 7.4 buffer containing 1% v/v protease inhibitors (Calbiochem) and re-homogenized on ice. The homogenized membranes were then processed through a syringe equipped with a 26 gauge needle. Protein concentrations were determined by Bradford Assay and the membranes were stored at −80° C.
Saturation experiments. A competitive NaV1.7 inhibitor having a methyl group was tritiated. Three tritiums were incorporated in place of methyl hydrogens to generate [^3H]compound. Binding of this radioligand was performed in 5 mL borosilicate glass test tubes at room temperature. Binding was initiated by adding membranes to increasing concentrations of [^3H]compound in 100 mM NaCl, 20 mM Tris HCl, pH 7.4 buffer containing 0.01% w/v bovine serum albumin (BSA) for 18 h. Non-specific binding was determined in the presence of 1 μM unlabeled compound. After 18 h, the reactants were filtered through GF/C glass fiber filters presoaked in 0.5% w/v polyethylene imine. Filters were washed with 15 mL ice cold 100 mM NaCl, 20 mM Tris HCl, pH7.4 buffer containing 0.25% BSA to separate bound from free ligand. [^3H]compound bound to filters was quantified by liquid scintillation counting.
Binding reactions were performed in 96-well polypropylene plates at room temperature for 18 h. In 360 μL, membranes were incubated with 100 pM [^3H]compound and increasing concentrations of Test Compound. Non-specific binding was defined in the presence of 1 μM unlabeled compound. Reactions were transferred and filtered through 96-well glass fiber/C filter plates presoaked with 0.5% polyethylene imine. The filtered reactions were washed 5 times with 200 μL ice cold buffer containing 0.25% BSA. Bound radioactivity was determined by liquid scintillation counting.
For saturation experiments, non-specific binding was subtracted from total binding to provide specific binding and these values were recalculated in terms of pmol ligand bound per mg protein. Saturation curves were constructed and dissociation constants were calculated using the single site ligand binding model: Beq=(Bmax*X)/(X+Kd), where Beq is the amount of ligand bound at equilibrium, Bmax is the maximum receptor density, Kd is the dissociation constant for the ligand, and X is the free ligand concentration. For competition studies percent inhibition was determined and IC50 values were calculated using a 4 parameter logistic model (% inhibition=(A+((B−A)/(1+((x/C)^D)))) using XLfit, where A and B are the maximal and minimum inhibition respectively, C is the IC50 concentration and D is the (Hill) slope.
Example 39B. Tritiated Compound Binding to Membranes Isolated from Cells that Heterologous Express hNav1.7 and the β1 Subunit
Following the procedure described in Example 39A, and making modifications as required to: centrifuge supernatants at 100000×g instead of 10000×g; re-suspend pellets in a buffer containing 0.01% BSA in addition to 100 mM NaCl, 20 mM Tris HCl, pH 7.4 buffer, and 1% v/v […]; and storing membranes at −80° C. in single use aliquots instead of pooled.
Saturation experiments: Following the procedure described in Example 243A, and making modifications as required to incubate [3H]compound for 3 hours instead of 18 hours. […]

Test [2] deals with T1, hNav1.7. The test is described as follows: Electrophysiological assay (EP), voltage clamp on Syncropatch 384PE. The class given is cell-based. As to conditions: CHO cells expressing Nav1.7, holding potential −50 mV, 7.5 min compound incubation; read-out: EP_SP hNav1.7 EVO IC50. An excerpt:
Example 39C. Electrophysiological Assay (EP) (In Vitro Assay)
Patch voltage clamp electrophysiology allows for the direct measurement and quantification of block of voltage-gated sodium channels (NaV's), and allows the determination of the time- and voltage-dependence of block which has been interpreted as differential binding to the resting, open, and inactivated states of the sodium channel (Hille, B., Journal of General Physiology (1977), 69: 497-515).
The following voltage clamp electrophysiology studies were performed on representative compounds using cells heterologously expressing Nav1.7 or Nav1.5 channels. cDNAs for Nav1.7 (NM_002977) and Nav1.5 (AC137587) were stably expressed in Chinese Hamstr Ovary (CHO) cells and CHL (Chinese Hamster Lung) cells respectively. Sodium currents were measured in the whole-cell configuration using Syncropatch 384PE (Nanlon Technologies, Germany). 1NPC®-384 chips with custom medium resistance and single hole mode are used. Internal solution consists of (in mM): 110 […], 10 CsCl, 20 EGTA, and 10 Hepes (pH adjusted to 7.2); and external solution contains (in mM): 60 NMDG, 80 NaCl, 4 KCl, 1 MgCl2, 2 CaCl2, 2 D-Glucose monohydrate, 10 Hepes (pH adjusted to 7.4 with NaOH).
After system flushing, testing compounds are dissolved in external solution containing 0.1% Pluronic F-127. The chip is moved into the measuring head and the instrument primes the chip with external and internal solutions. 10 l cells are added to the chip from a cell hotel, and a negative pressure of −50 mBar is applied to form a seal. Following treatment with seal enhancer solution and wash-off with external solution, negative pressure of −250 mbar is applied for 1 second to achieve the whole-cell configuration, followed by three washing steps in external solution. 20 µl of compounds is added to 40 µl in each well (1:3 dilution of compounds), and after mixing, 20 l is removed so the volume is retained at 40 ul. After approximately 13 minutes recordings, 20 µl/well of 2 uM TTX, or 333 uM Tetracaine (for Nav1.5) is added to achieve full block.
For voltage protocol, an holding potential of −50 mV is applied during the whole experiment. A depolarizing step is applied to −10 mV for 10 ms, followed by a hyperpolarization step to −150 mV for 20 ms to allow channel recovery from inactivation. A second depolarizing step is applied from −150 mV to −10 mV for 10 ms, where currents were measured to derive blocking effects of compounds. Inhibition is determined based on 7.5 min of compound incubation.
In general terms: In patch-clamp work, channel activity is measured electrically.

The term IC50 denotes the point on the concentration scale where inhibition reaches its midpoint. Regarding `COc1cc(-c2cccc(C(F)(F)F)c2)c(F)cc1N1C(=O)CC[C@H]2CN(S(=O)(=O)Nc3ccon3)CCC21` (stereo in doubt) [Example 37, (4aS,8aR)-1-(2-fluoro-5-methoxy-3′-(trifluoromethyl)-[1,1′-biphenyl]-4-yl)-N-(isoxazol-3-yl)-2-oxooctahydro-1,6-naphthyridine-6(2H)-sulfonamide], the values for the IC50 in test [1] and in test [2] were 761 nM and 12.9 nM, respectively.
On to `COc1cc(-c2cccc(C(F)(F)F)c2F)c(F)cc1N1C(=O)CO[C@@H]2CN(S(=O)(=O)Nc3ccon3)CC[C@H]21` [Example 11, (4aR,8aR)-1-(2,2′-difluoro-5-methoxy-3′-(trifluoromethyl)-[1,1′-biphenyl]-4-yl)-N-(isoxazol-3-yl)-2-oxohexahydro-1H-pyrido[3,4-b][1,4]oxazine-6(7H)-sulfonamide], for which the IC50 in test [1] came to 230 nM; in test [2], 11.2 nM.
As for `COc1cc(-c2cccc(C(F)(F)F)c2)c(F)cc1N1CCO[C@H]2CN(S(=O)(=O)Nc3ccncn3)CC[C@@H]21` [Example 28, (4aS,8aS)-1-(2-fluoro-5-methoxy-3′-(trifluoromethyl)-[1,1′-biphenyl]-4-yl)-N-(pyrimidin-4-yl)hexahydro-1H-pyrido[3,4-b][1,4]oxazine-6(7H)-sulfonamide], the results for the IC50 in test [1] and in test [2] were 26.3 nM and 2.1 nM, respectively.
For `COc1cc(-c2cccc(C(F)(F)F)c2)c(F)cc1N1CCO[C@H]2CN(S(=O)(=O)Nc3ccon3)CC[C@@H]21` [Example 26, (4aS,8aS)-1-(2-fluoro-5-methoxy-3′-(trifluoromethyl)-[1,1′-biphenyl]-4-yl)-N-(isoxazol-3-yl)hexahydro-1H-pyrido[3,4-b][1,4]oxazine-6(7H)-sulfonamide], the figures for the IC50 in test [1] and in test [2] were 63.6 nM and 10.6 nM, respectively.
On to `COc1cc(-c2cccc(C(F)(F)F)c2)c(F)cc1N1C(=O)OC[C@@H]2CN(S(=O)(=O)Nc3ccon3)CC[C@H]21` [Example 33, (4aR,8aR)-1-(2-fluoro-5-methoxy-3′-(trifluoromethyl)-[1,1′-biphenyl]-4-yl)-N-(isoxazol-3-yl)-2-oxohexahydro-2H-pyrido[4,3-d][1,3]oxazine-6(4H)-sulfonamide], for which the half-maximal inhibitory concentration (IC50) in test [1] was found to be 112 nM; in test [2] it was 10.4 nM.
On to `COc1cc(-c2ccc(F)c(C(F)(F)F)c2)c(F)cc1N1C(=O)CO[C@H]2CN(S(=O)(=O)Nc3ccon3)CC[C@@H]21` [Example 2, (4aS,8aS)-1-(2,4′-difluoro-5-methoxy-3′-(trifluoromethyl)-[1,1′-biphenyl]-4-yl)-N-(isoxazol-3-yl)-2-oxohexahydro-1H-pyrido[3,4-b][1,4]oxazine-6(7H)-sulfonamide], for which the IC50 in test [1] amounted to 38.4 nM; in test [2], 0.915 nM.
The corresponding values for `COc1cc(-c2cccc(C(F)(F)F)c2)c(F)cc1N1C(=O)CC[C@@H]2CN(S(=O)(=O)Nc3ccon3)CC[C@@H]21` [Example 38, (4aR,8aS)-1-(2-fluoro-5-methoxy-3′-(trifluoromethyl)-[1,1′-biphenyl]-4-yl)-N-(isoxazol-3-yl)-2-oxooctahydro-1,6-naphthyridine-6(2H)-sulfonamide] are 641 nM and 10.7 nM.
As to `COc1cc(-c2cccc(C(F)(F)F)c2)c(F)cc1N1CCO[C@@H]2CN(S(=O)(=O)Nc3ccon3)CC[C@H]21` [Example 25, (4aR,8aR)-1-(2-fluoro-5-methoxy-3′-(trifluoromethyl)-[1,1′-biphenyl]-4-yl)-N-(isoxazol-3-yl)hexahydro-1H-pyrido[3,4-b][1,4]oxazine-6(7H)-sulfonamide], the figures for the IC50 in test [1] and in test [2] were 208 nM and 2.36 nM, respectively.
Turning to `COc1cc(-c2cc(C(F)(F)F)ccc2F)c(F)cc1N1C(=O)CO[C@@H]2CN(S(=O)(=O)Nc3ccon3)CC[C@H]21` [Example 7, (4aR,8aR)-1-(2,2′-difluoro-5-methoxy-5′-(trifluoromethyl)-[1,1′-biphenyl]-4-yl)-N-(isoxazol-3-yl)-2-oxohexahydro-1H-pyrido[3,4-b][1,4]oxazine-6(7H)-sulfonamide], the IC50 worked out at 167 nM in test [1] and 5.76 nM in test [2].
In the case of `COc1nc(-c2cccc(C(F)(F)F)c2)c(F)cc1N1C(=O)CO[C@@H]2CN(S(=O)(=O)Nc3ccon3)CC[C@H]21` [Example 21, (4aR,8aR)-1-(5-fluoro-2-methoxy-6-(3-(trifluoromethyl)phenyl)pyridin-3-yl)-N-(isoxazol-3-yl)-2-oxohexahydro-1H-pyrido[3,4-b][1,4]oxazine-6(7H)-sulfonamide], the results for the IC50 in test [1] and in test [2] were 2000 nM and 47.5 nM, respectively.
For `COc1cc(-c2cccc(OC(F)(F)F)c2)c(F)cc1N1CCO[C@@H]2CN(S(=O)(=O)Nc3ccon3)CC[C@H]21` [Example 31, (4aR,8aR)-1-(2-fluoro-5-methoxy-3′-(trifluoromethoxy)-[1,1′-biphenyl]-4-yl)-N-(isoxazol-3-yl)hexahydro-H-pyrido[3,4-b][1,4]oxazine-6(7H)-sulfonamide] the same measures were 128 nM and 5.98 nM.
For `COc1cc(-c2cccc(C(F)(F)F)c2)c(F)cc1N1C(=O)CO[C@H]2CN(S(=O)(=O)Nc3ccon3)CC[C@@H]21` [Example 4, (4aS,8aS)-1-(2-fluoro-5-methoxy-3′-(trifluoromethyl)-[1,1′-biphenyl]-4-yl)-N-(isoxazol-3-yl)-2-oxohexahydro-1H-pyrido[3,4-b][1,4]oxazine-6(7H)-sulfonamide], the figures for the IC50 in test [1] and in test [2] were 60 nM and 3.52 nM, respectively.
